Laboratory results published in ChEMBL document CHEMBL1136068 (Bioorg Med Chem Lett, 2003).
Active and inactive are the calls of the source. The calls are words filed in the database; no cut-off is given here.

How the values were obtained:
Androgen receptor = biological target: T1, Androgen receptor (Homo sapiens, UniProt P10275)
T1 sequence (P10275 whole entry): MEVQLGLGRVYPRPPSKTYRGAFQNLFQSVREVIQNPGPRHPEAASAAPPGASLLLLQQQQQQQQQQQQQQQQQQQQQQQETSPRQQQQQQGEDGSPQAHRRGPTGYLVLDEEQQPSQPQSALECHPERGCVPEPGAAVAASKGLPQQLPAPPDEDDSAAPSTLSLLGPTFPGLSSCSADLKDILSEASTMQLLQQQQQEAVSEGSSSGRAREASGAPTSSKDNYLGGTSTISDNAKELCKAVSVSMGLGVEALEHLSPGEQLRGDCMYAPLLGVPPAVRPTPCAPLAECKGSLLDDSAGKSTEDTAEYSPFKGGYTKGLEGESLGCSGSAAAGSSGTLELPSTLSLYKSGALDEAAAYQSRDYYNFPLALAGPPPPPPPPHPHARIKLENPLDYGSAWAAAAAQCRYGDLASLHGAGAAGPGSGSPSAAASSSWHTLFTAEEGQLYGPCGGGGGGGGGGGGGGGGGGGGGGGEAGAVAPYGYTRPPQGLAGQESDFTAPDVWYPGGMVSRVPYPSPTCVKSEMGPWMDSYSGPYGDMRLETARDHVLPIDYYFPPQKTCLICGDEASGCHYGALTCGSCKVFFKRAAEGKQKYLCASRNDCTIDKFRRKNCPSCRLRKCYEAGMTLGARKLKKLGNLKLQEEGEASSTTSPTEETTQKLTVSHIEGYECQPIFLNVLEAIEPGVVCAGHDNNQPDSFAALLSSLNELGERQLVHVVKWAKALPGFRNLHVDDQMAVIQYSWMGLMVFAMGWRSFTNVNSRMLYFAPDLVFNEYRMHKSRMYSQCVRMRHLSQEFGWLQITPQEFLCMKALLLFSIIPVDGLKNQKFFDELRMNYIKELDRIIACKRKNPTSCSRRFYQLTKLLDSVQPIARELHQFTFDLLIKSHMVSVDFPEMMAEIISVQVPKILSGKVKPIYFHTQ
Description: Antagonist activity against Androgen receptor

Glucocorticoid receptor [1] = biological target: T2, Glucocorticoid receptor (Homo sapiens, UniProt P04150)
T2 sequence (P04150 whole entry): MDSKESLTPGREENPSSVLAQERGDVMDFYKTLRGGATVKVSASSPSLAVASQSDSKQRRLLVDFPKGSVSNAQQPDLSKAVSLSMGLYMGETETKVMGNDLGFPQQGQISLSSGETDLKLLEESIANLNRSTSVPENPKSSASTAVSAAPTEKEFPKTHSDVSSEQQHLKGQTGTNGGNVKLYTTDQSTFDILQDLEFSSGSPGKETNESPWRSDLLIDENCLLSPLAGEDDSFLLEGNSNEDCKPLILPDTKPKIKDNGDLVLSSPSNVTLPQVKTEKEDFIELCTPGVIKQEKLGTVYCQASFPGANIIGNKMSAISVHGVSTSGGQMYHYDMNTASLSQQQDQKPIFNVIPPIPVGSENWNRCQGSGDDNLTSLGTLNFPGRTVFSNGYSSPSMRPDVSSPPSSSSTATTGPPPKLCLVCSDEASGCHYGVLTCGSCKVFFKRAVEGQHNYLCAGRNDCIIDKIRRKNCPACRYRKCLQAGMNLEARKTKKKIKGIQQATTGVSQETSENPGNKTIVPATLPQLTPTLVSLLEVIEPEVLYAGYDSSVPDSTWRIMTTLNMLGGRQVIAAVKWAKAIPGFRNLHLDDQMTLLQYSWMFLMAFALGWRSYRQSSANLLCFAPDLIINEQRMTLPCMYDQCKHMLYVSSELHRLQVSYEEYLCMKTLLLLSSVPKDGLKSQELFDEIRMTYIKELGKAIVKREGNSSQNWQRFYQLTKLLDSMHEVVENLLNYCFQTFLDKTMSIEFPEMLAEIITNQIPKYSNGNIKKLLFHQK

Glucocorticoid receptor [2] = biological target: T2, Glucocorticoid receptor; assay: Antagonist activity at glucocorticoid (hGR) receptor; assay type: functional
Progesterone receptor = biological target: T3, Progesterone receptor (Homo sapiens, UniProt P06401); assay: Binding affinity for human progesterone receptor; […]
T3 sequence (P06401 whole entry): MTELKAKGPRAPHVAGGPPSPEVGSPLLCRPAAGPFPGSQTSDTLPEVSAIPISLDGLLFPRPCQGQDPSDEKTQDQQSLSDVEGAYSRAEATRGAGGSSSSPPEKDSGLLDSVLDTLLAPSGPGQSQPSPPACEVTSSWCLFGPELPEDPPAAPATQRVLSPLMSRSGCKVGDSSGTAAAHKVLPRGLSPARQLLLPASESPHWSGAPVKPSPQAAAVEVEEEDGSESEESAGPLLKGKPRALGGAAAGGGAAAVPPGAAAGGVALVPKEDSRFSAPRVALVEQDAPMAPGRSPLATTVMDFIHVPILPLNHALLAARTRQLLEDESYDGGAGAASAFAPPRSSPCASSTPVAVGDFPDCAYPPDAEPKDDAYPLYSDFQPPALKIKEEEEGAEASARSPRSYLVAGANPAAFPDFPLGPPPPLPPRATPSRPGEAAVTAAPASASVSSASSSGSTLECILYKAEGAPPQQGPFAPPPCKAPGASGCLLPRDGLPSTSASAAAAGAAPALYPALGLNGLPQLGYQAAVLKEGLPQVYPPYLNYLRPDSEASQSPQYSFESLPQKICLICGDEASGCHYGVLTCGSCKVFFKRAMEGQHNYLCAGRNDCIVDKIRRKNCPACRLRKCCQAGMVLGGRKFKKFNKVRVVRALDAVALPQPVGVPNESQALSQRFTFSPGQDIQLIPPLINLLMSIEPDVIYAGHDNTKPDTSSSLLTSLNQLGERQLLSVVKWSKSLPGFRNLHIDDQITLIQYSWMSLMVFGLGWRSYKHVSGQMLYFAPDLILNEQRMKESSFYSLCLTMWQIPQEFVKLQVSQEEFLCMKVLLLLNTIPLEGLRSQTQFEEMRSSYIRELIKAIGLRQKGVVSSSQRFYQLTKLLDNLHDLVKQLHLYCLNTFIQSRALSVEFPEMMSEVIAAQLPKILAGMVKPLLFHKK

Glucocorticoid receptor [3] = biological target: T2, Glucocorticoid receptor; assay: Antagonist activity at glucocorticoid receptor; assay type: functional
Estrogen receptor = Estrogen receptor (Homo sapiens, UniProt Q92731+P03372); assay: Antagonist efficacy with Estrogen receptor; Efficacy <20% and/or potency >[…] nM; assay type: functional

| Structure (SMILES) | IC50 (Androgen receptor) [nM] | IC50 (Glucocorticoid receptor [2]) [nM] | also measured |
| --- | --- | --- | --- |
| CC1=CC(C)(C)Nc2ccc3c(c21)/C(=C/Br)Oc1ccc(F)cc1-3 | 250 | – | IC50 (Glucocorticoid receptor [1]): > 1000 nM |
| CC(C)=C/C=C1\Oc2ccc(F)cc2-c2ccc3c(c21)C(C)=CC(C)(C)N3 | – | 177 | Ki (Progesterone receptor): 2.5 nM |
| CC/C(C)=C1\Oc2ccc(F)cc2-c2ccc3c(c21)C(C)=CC(C)(C)N3 | – | – | IC50 (Glucocorticoid receptor [3]): 324 nM; Efficacy (Estrogen receptor): inactive |
| CC(=O)C[C@]1(C(C)=O)CC[C@H]2C3C[C@H](C)C4=CC(=O)CC[C@]4(C)[C@H]3CC[C@@]21C (stereo partly drawn) | 6.1 | 10 | – |
